# Experiments:
# [1] = Cyclic voltammetry (CV) screening of oxidation potentials; type: physicochemical; settings: glassy carbon working electrode, 0.2 M lithium perchlorate
# Description: The oxidation/reduction characteristics of the compounds were investigated. Several compounds, including L-Trp and derivatives, were evaluated for the protection of Trp oxidation in proteins using cyclic voltammetry (CV) and rank ordered based on their oxidation potentials (Table 2). Specifically, the candidate antioxidants were dissolved in deionized water and then added to a 0.2 M lithium perchlorate electrolyte solution. […] Solutions were scanned from −0.10 V to +1.50 V at a scan rate of either 100 or 500 mV/sec. The analytical cell was purged for four minutes with nitrogen before scanning of each antioxidant solution. The input was a linear scan of the potential of a working electrode, and the output was measurement of the resulting current. […] Redox reactions were characterized by sharp increases or decreases in current (peaks). The potential at which an oxidation reaction occurred was referred to as the anodic peak potential (or oxidation potential), and the potential at which a reduction occurred was referred to as is the cathodic peak (or reduction) potential.
# [2] = test system: mAb1; assay: Ambient light exposure of 50 mg/mL mAb1 formulations containing L-Trp (Amplex assay, RP-HPLC); type: physicochemical, human
# From the text: While confirming the photosensitivity of free L-Trp under ICH light conditions, the effect of ambient light that was typically seen in laboratories was studied. Measurements using a DLM1 digital light meter in various labs indicated an average of 300 lux on a lab benchtop (with white fluorescent lighting), an average of 3000 lux in a laminar flow hood (with white fluorescent lighting) and about 10000 lux for a windowsill exposed to southeast sunlight. […] Peroxide production increased with both luminosity (300, 3000, and 10000 lux) and time (1, 3, and 7 days). […] These levels of light exposure and time were determined to be pharmaceutically relevant for drug substance handling under ambient light and temperature before fill/finish operations and potentially while inspecting drug product vials.
# [3] = test system: mAb1; assay: mAb1 light stress study, 16 hours; Fab/Fc oxidation by RP-HPLC; type: physicochemical, human; settings: 16 hours of light at 250 W/m^2
# Description: The fragments were reduced with DTT, and then separated and identified via Liquid Chromatography-Mass Spectrometry (LC-MS). […] Comparison of area integrated under the oxidized and native peaks was used to quantify HC Fab and Fc oxidation. […] By using the papain digest RP-HPLC method in the present study it was possible to investigate Trp residue oxidation by quantifying HC Fab oxidation, and Met residue oxidation by quantifying HC Fc oxidation.
# Antioxidants were added at 1 mM. Glass vials containing these formulations were exposed to 250 W/m^2 light in an Atlas SunTest CPS+ Xenon Test Instrument (Chicago, Ill.). Control vials were wrapped in aluminum foil and treated similarly. After light exposure, solutions were prepared for analysis by reverse-phase HPLC as described above.
# [4] = test system: mAb1; assay: mAb1 light stress, eight hours, with L-Trp and L-Met; Fab/Fc oxidation by papain digest RP-HPLC; type: physicochemical, human; settings: 5 mg/mL mAb1, 8 h light at 250 W/m^2, L-Trp at 1 mM
# Description: L-tryptophan (L-Trp), an antioxidant used in protein formulations, has been recently shown to be photosensitive (Igarashi et al., Anal Sci 23(8):943-8 (2007)) and to have the ability to produce H2O2 upon light exposure. […] Control vials were wrapped in aluminum foil and treated similarly. After light exposure, solutions were prepared for analysis by reverse-phase HPLC. […] Following incubation, 900 μL of the solution was combined with 100 μL of 1 M dithiothreitol (DTT) and incubated for another thirty minutes at 37° C. Samples were then run on an Agilent, Inc. 1100/1200 HPLC system (Santa Clara, Calif.) equipped with UV detection at 280 nm in conjunction with a Varian, Inc. Pursuit 3 μm, 2 mm ID×250 mm diphenyl column (Palo Alto, Calif.). Mobile Phase A was 0.1% TFA in water. Mobile Phase B was 0.1% TFA in acetonitrile. The mobile phase gradient increased linearly from 34% B at 0 minutes to 43% B at 50.0 minutes, then to 95% B at 50.1 minutes. The gradient remained at 95% B until 60.1 minutes, and then decreased linearly from 95% B to 34% B between 60.1 and 60.2 minutes. The gradient remained at 34% B until the end of the cycle at 80.2 minutes. The column temperature was 65° C., total flow rate was 0.2 mL/min, and injection volume of each sample was 6 μL. Chromatograms were then integrated for quantification of oxidation.
# [5] = H2O2 generation by free L-Trp upon light exposure for 3 hours (Amplex assay); type: physicochemical
# Description: It was previously reported that L-Trp produced H2O2 via superoxide ion and in a sub-stoichiometric fashion while antibodies under similar conditions were producing catalytic amounts (Wentworth et al., Science 293(5536):1806-11 (2001); McCormick et al., Journal of the American Chemical Society 100:312-313 (1978)). To test the susceptibility of free L-Trp under pharmaceutically relevant conditions, such as under both ICH and ambient light conditions, formulations comprising 0.32 mM to 7.5 mM of L-Trp were exposed for 3 hours at 250 W/m^2 UV light and about 150 k lux visible light. Samples were taken and analyzed immediately via the Amplex assay to detect the amount of H2O2 generated under these conditions. […] When L-Trp was incubated with a combination of 50 mM NaN3 and 150 U superoxide dismutase (SOD) or SOD alone, significant amounts of H2O2 were still detected in the samples not containing NaN3.
# [6] = test system: mAb1; assay: mAb1 Fenton stress study (H2O2 + Fe); Fab/Fc oxidation by RP-HPLC; type: physicochemical, human; settings: 1 mM, 10 ppm H2O2, 0.2 mM Fe(III), 40° C. for 3 hours
# Description: Antioxidants were added at a final concentration of 1 mM. […] After incubation, each reaction was quenched by addition of 100 mM L-Met and then prepared for analysis by reverse-phase HPLC as described above.
# The Fenton reaction, using a mixture of H2O2 and Fe ions, generates oxidation through a metal catalyzed, hydroxyl radical reaction (Prousek et al., Pure and Applied Chemistry 79(12):2325-2338 (2007)). This reaction generated Fab, i.e. tryptophan, oxidation in mAb1. The reaction was also carried out in the presence of select antioxidants that were useful against both AAPH and light induced oxidation as reported above. Data related to the antioxidant properties against Fenton mediated reaction were analyzed using the RP-HPLC assay as described above. The Fenton reaction used 10 ppm of H2O2 and 0.2 mM of Fe(III). The reaction was incubated at 40° C. for 3 hours, quenched with 100 mM L-Met and analyzed using RP-HPLC after papain digest. All samples were the average of three separate vials, and mAb1 control (Ref Mat) was one vial with five independent injections on the HPLC. […] In regards to protection against Fc oxidation, the tested excipients (other than salicylic acid) performed slightly better than L-Trp.
smiles,measurement,setting,value
"N[C@@H](Cc1c[nH]c2ccccc12)C(=O)O [L-Trp, L-Tryptophan]",Oxidation Potential (anodic peak),[1],0.938 V vs Ag/AgCl
same,Heavy chain Fab oxidation (W53) with increased luminosity (in words),"[2]; 50 mg/mL mAb1 with 3.2 mM L-Trp, 10 days ambient light",increased heavy chain Fab oxidation
same,% Fc oxidation in mAb1,"[2]; 50 mg/mL mAb1 with 3.2 mM L-Trp, ambient light 300 lux",5%
same,% Fc oxidation in mAb1,"[2]; 50 mg/mL mAb1 with 3.2 mM L-Trp, ambient light 10000 lux",40%
same,Hydrogen peroxide produced under ambient light,"[2]; L-Trp in formulation buffers containing 50 mg/mL mAb1, 300, 3000, 10000 lux, 1, 3, 7 days",in the micromolar range
same,Fc oxidation relative to the control level,[3]; 1 mM L-Trp,7 times
same,Fab oxidation increase over the control level (mAb1 Ref Mat),"[3]; excipient 1 mM, label mAb1 = No Excipient",over 11 fold
same,Fc oxidation of mAb1,[4],over 20%
same,Fab oxidation of mAb1,[4]; label mAb1 = No Excipient,~9%
same,H2O2 generated by free L-Trp upon light exposure,"[5]; 0.32 mM to 7.5 mM L-Trp, 3 hours at 250 W/m^2 UV light and about 150 k lux visible light",large quantity of H2O2
same,H2O2 generation by L-Trp in the presence of sodium azide,"[5]; 50 mM sodium azide, 3 hours light",reduced greatly
same,Protection of Fab oxidation with respect to the no excipient case,[6],about 25%
